The results in this text go back to article PMC10979476, “Molecular Deformation Is a Key Factor in Screening Aggregation Inhibitor for Intrinsically Disordered Protein Tau” (ACS Central Science, 2024).

The target of one series is T1, tau hexapeptide VQIVYK (Homo sapiens, UniProt P10636).
T1 construct: 306VQIVYK311(15 μM), ThS, VQIVYK+heparin
The series can be described thus: Heparin-induced aggregation of tau hexapeptide VQIVYK, fluorescence assay. The settings on record: VQIVYK 15 μM, Figure S15. The class given is biochemical. The source says:
The carbonyl group in five-membered ring A in IPP1 forms a hydrogen bond with the amino group on glutamine (GLN307), valine (VAL309), and tyrosine (TYR310). The nitrogen atom in pyridine ring C in IPP1 also forms a hydrogen bond with the amino group of isoleucine (ILE308). Pyridine ring C on IPP1 forms π–π stacking with the benzene ring on TYR310. The five-membered ring A in IPP1 also forms hydrophobic contacts with glycine (GLY304), VAL306, and VAL309, which further increases the interaction between the molecule IPP1 and tau. […] Visually, IPP1 is like a molecular clip that firmly holds the key region, preventing the peptide from freely curling/folding and increasing the possibility to inhibit aggregation. […] As a result, the effective interactions between these compounds and tau peptide chains are much less than those of IPP1. […] To verify the docking results, we directly applied IPP1 to the aggregation of tau hexapeptide VQIVYK (Figure S15). […] The positive experimental results of IPP1 inhibition on tau hexapeptide further confirmed the reliability of our theoretical speculation on the target segment. […]
17. The fluorescence spectra of peptide fragments systems in the presence or absence of IPP1
Figure S15. The fluorescence spectra of peptide fragments systems containing […]

Another series deals with SK-N-SH cells. The series can be described thus: CCK-8 cell survival assay. The series is classed as cell-based, human. To be noted: 24 h; for cytotoxicity (in words): different concentrations, SK-N-SH cells. The method, then:
After the above-mentioned systematic study of SAR at the molecular level, we wondered whether these inhibitory effects can be reproduced in the actual biological system, laying the foundation for the discovery of drug lead compounds. Therefore, the cytotoxicity and inhibitory effects of these synthetic compounds were evaluated by human neuroblastoma SK-N-SH cells. […] The cell viability of SK-N-SH was assessed using a cell counting kit-8 (CCK-8) assay.[48] It could be seen that the cell survival rate was still higher than 70% when the concentration of IPP1 reached 30 μM. […]
11. In Vitro Cellular Uptake and Cell Cytotoxicity.
Cell viability was assessed using Cell Counting Kit-8 (CCK-8) assay following the manufacturer’s instructions. SK-N-SH cells were seeded at a density of 2.0 × 10^4 cells per well in a 96-well plate and incubated for 24 h to adhere in a humidified chamber. Then, the cells were treated with various concentrations of compounds IPP1~IPP4 for 24 h. After that, the culture supernatants were removed, and 90 μL of medium and 10 μL of CCK-8 solution were then added. After further incubation for 3 h at 37 °C, the absorbance was measured at 450 nm using Microplate Reader 581 (SpectraMax iD3). Six replicates were used in each group.
12. In Vitro Evaluation of Inhibitory Effects of Inhibitor on Tau Aggregation In SK-N-SH Cell.
The effect of inhibitors on the formation of aggregate tau in SK-N-SH was tested by using the previously reported method15. First, SK-N-SH was grown on glass coverslips in 12-well plate at a […]
(Tetrazolium dyes change colour on reduction, which living cells bring about.)

Regarding `O=C1Nc2cccc(-c3ccc(N4CCCC4)nc3)c2C1=O` [IPP1, 4-(6-(pyrrolidin-1-yl)pyridin-3-yl)indoline-2,3-dione], on tau hexapeptide VQIVYK, the “aggregation of tau hexapeptide induced by heparin” value was “significantly reduced the aggregation of tau hexapeptide”. Moreover, in the series on SK-N-SH cells (30 μM, tau-infected SK-N-SH cells), the cell survival rate result is “higher than 70%”. Moreover, the “cytotoxicity (in words)” value in the series with SK-N-SH cells is recorded as “relatively low cytotoxicity”.
In the case of `O=C1Nc2ccc(-c3ccc(N4CCCC4)nc3)cc2C1=O` [IPP2, 5-(6-(pyrrolidin-1-yl)pyridin-3-yl)indoline-2,3-dione], in the series on SK-N-SH cells, the “cytotoxicity (in words)” value is “lowest cytotoxicity”.
Regarding `O=C1Nc2cc(-c3ccc(N4CCCC4)nc3)ccc2C1=O` [IPP3, 6-(6-(pyrrolidin-1-yl)pyridin-3-yl)indoline-2,3-dione], in the series with SK-N-SH cells, the “cytotoxicity (in words)” value is “toxicity is not negligible”.
